Values of other authors as cited in patent US6833085B2, “Agent for restricting elution of phosphorus, method for producing the same, and method of restricting elution of phosphorus in sludge” (priority 2003, dated 2004).
Where two headings read alike, the source gives them in different places.

Settings: for Amount of diluted phosphorus: aqueous solution added into sludge

In the case of [Cl][Fe]([Cl])[Cl] [Ferric chloride, ferric chloride], the “Amount of diluted phosphorus” value (concentration 0.16%) is given as 234 µg/L and the “Amount of diluted phosphorus” value (concentration 0.32%) is given as 402 µg/L.
In the case of alum, the “Amount of diluted phosphorus” value (concentration 0.21%) is listed as 407 µg/L and the “Amount of diluted phosphorus” value (concentration 0.42%) is listed as 490 µg/L.
For O=[N+]([O-])[O-].O=[N+]([O-])[O-].[Ca+2] [Calcium nitrate, calcium nitrate], the “Amount of diluted phosphorus” value (concentration 0.35%) is listed as 67 µg/L, the “Amount of diluted phosphorus” value (concentration 0.70%) is listed as 13 µg/L and the “Inhibition of elution of phosphorus” value (injecting a 0.7% aqueous solution) is listed as 98%.
